Test results as given in ChEMBL document CHEMBL1201862, “PubChem BioAssay data set” (2004).
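Grown in 96-well plates, cells were treated for 48 hours with each compound at five concentrations. Insufficient inhibition: endpoint recorded as highest concentration tested. The concentration for 50% growth inhibition is given as GI50.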 Activity calls are given as the source filed them. Rule as the data show it: active = GI50 up to about 1.1 µM and inactive = higher.

Experiments:
Assay in all cases: growth of human tumour cells (NCI), 48 h
[1] = tested on: DMS-114
[2] = tested on: HOP-18
[3] = tested on: KM-20L2
[4] = tested on: M19-MEL
[5] = tested on: RXF 631
[6] = tested on: SNB-78
[7] = tested on: XF498
[8] = tested on: DLD-1
[9] = tested on: LXFL 529

Structure (SMILES): O=S(=O)(c1ccccc1)N1CCC1c1ccccc1 (stereo not given)
- GI50 [1]: 50.1 µM (inactive)
- GI50 [2]: 51.5 µM (inactive)
- GI50 [3]: > 100 µM (inactive)
- GI50 [4]: > 100 µM (inactive)
- GI50 [5]: > 100 µM (inactive)
- GI50 [6]: > 100 µM (inactive)
- GI50 [7]: 51.9 µM (inactive)

Structure (SMILES): CCN1c2ccccc2-c2c3c1cc(C)cc3c1ccccc1[n+]2CC
- GI50 [8]: 2.55 µM (inactive)
- GI50 [1]: 0.461 µM (active)
- GI50 [9]: 0.384 µM (active)
- GI50 [4]: 0.36 µM (active)
- GI50 [5]: 5.24 µM (inactive)
- GI50 [6]: 2.64 µM (inactive)

Structure (SMILES): C/C(=N\NC(N)=S)C(CN(CC(C)C)CC(C)C)C(=O)Nc1ccc(C)cc1C (stereo not given)
- GI50 [8]: > 100 µM (inactive)
- GI50 [1]: > 100 µM (inactive)
- GI50 [2]: > 100 µM (inactive)
- GI50 [3]: > 100 µM (inactive)
- GI50 [9]: > 100 µM (inactive)
- GI50 [4]: > 100 µM (inactive)
- GI50 [6]: > 100 µM (inactive)
- GI50 [7]: > 100 µM (inactive)

Structure (SMILES): C[C@]12CC[C@H](OC3OC(CO)C(O)C(O)C3O)C[C@H]1CC[C@@H]1[C@@H]2CC[C@]2(C)[C@@H](C3=CCOC3=O)CC[C@]12O (stereo not given in full) [ACTODIGIN]
- GI50 [8]: 39.7 µM (inactive)
- GI50 [1]: 10.2 µM (inactive)
- GI50 [2]: 50 µM (inactive)
- GI50 [3]: 3.55 µM (inactive)
- GI50 [4]: 11.7 µM (inactive)
- GI50 [6]: 26.5 µM (inactive)
- GI50 [7]: 1.44 µM (inactive)

Structure (SMILES): COc1cccc2c1C(=O)c1c(O)c3c(c(O)c1C2=O)CC(O)(C(C)=O)CC3OC1CC([N+](C)(C)C)C(O)C(C)O1 (stereo not given)
- GI50 [8]: 91.2 µM (inactive)
- GI50 [1]: > 100 µM (inactive)
- GI50 [2]: > 100 µM (inactive)
- GI50 [3]: > 100 µM (inactive)
- GI50 [9]: 64.9 µM (inactive)
- GI50 [4]: 70.6 µM (inactive)
- GI50 [5]: 31.1 µM (inactive)
- GI50 [6]: > 100 µM (inactive)
- GI50 [7]: 10.7 µM (inactive)

Structure (SMILES): N#C[C-](C#N)[n+]1ccc(Cl)cc1
- GI50 [8]: 11.5 µM (inactive)
- GI50 [1]: 13.4 µM (inactive)
- GI50 [3]: 24.2 µM (inactive)
- GI50 [9]: 13.6 µM (inactive)
- GI50 [4]: 12.4 µM (inactive)
- GI50 [5]: 17.4 µM (inactive)
- GI50 [6]: 17.9 µM (inactive)
- GI50 [7]: 19.3 µM (inactive)

Structure (SMILES): CCCCCCCC(=O)OCC1OC(n2cc(F)c(=O)[nH]c2=O)C(N)C(O)C1O (stereo not given)
- GI50 [8]: > 100 µM (inactive)
- GI50 [1]: > 100 µM (inactive)
- GI50 [2]: > 100 µM (inactive)
- GI50 [3]: > 100 µM (inactive)
- GI50 [9]: > 100 µM (inactive)
- GI50 [4]: > 100 µM (inactive)
- GI50 [6]: > 100 µM (inactive)

Structure (SMILES): COc1cc(C(=C2SCCS2)c2nccc3cc(OC)c(OC)cc23)c([N+](=O)[O-])cc1OC
- GI50 [8]: > 100 µM (inactive)
- GI50 [1]: 41.6 µM (inactive)
- GI50 [2]: > 100 µM (inactive)
- GI50 [3]: 51.1 µM (inactive)
- GI50 [9]: 18.5 µM (inactive)
- GI50 [4]: 72.9 µM (inactive)
- GI50 [6]: 18 µM (inactive)
- GI50 [7]: 17.9 µM (inactive)

Structure (SMILES): Nc1ncnc2c1nc(Cl)n2[C@@H]1O[C@@H]2COP(=O)(O)O[C@H]2[C@H]1O [TOCLADESINE]
- GI50 [8]: 3.81 µM (inactive)
- GI50 [1]: 26.7 µM (inactive)
- GI50 [2]: > 109 µM (inactive)
- GI50 [3]: 13.5 µM (inactive)
- GI50 [4]: > 300 µM (inactive)
- GI50 [6]: 165 µM (inactive)

Structure (SMILES): N#CC(C#N)=Cc1ccc(Oc2ccccc2)cc1
- GI50 [8]: 14.1 µM (inactive)
- GI50 [1]: 26.2 µM (inactive)
- GI50 [2]: 33.4 µM (inactive)
- GI50 [3]: > 91.4 µM (inactive)
- GI50 [9]: 25.8 µM (inactive)
- GI50 [4]: 32 µM (inactive)
- GI50 [5]: 36.3 µM (inactive)
- GI50 [6]: 28.2 µM (inactive)
- GI50 [7]: 37.8 µM (inactive)

Structure (SMILES): CCN(CC)CCCNc1ncc(C)c2c1c1ccc3c(O)cccc3c1n2C
- GI50 [8]: 1.47 µM (inactive)
- GI50 [1]: 1.39 µM (inactive)
- GI50 [2]: 0.635 µM (active)
- GI50 [3]: 3.07 µM (inactive)
- GI50 [9]: 1.61 µM (inactive)
- GI50 [6]: 14.2 µM (inactive)
- GI50 [7]: 15.2 µM (inactive)

Structure (SMILES): S=c1nc(N2CCCCC2)ss1
- GI50 [8]: 26.7 µM (inactive)
- GI50 [1]: 19.7 µM (inactive)
- GI50 [2]: 40.6 µM (inactive)
- GI50 [3]: > 100 µM (inactive)
- GI50 [9]: 15.1 µM (inactive)
- GI50 [4]: 18.2 µM (inactive)
- GI50 [5]: 29.4 µM (inactive)
- GI50 [6]: 32.2 µM (inactive)
- GI50 [7]: 20.1 µM (inactive)

Structure (SMILES): COS(=O)CCOC(=O)c1ccccc1SSc1ccccc1C(=O)OCCS(=O)OC (stereo not given)
- GI50 [8]: 34.5 µM (inactive)
- GI50 [1]: 16 µM (inactive)
- GI50 [2]: > 100 µM (inactive)
- GI50 [3]: 61 µM (inactive)
- GI50 [9]: 18.5 µM (inactive)
- GI50 [4]: 21.2 µM (inactive)
- GI50 [6]: > 100 µM (inactive)
- GI50 [7]: 29.8 µM (inactive)

Structure (SMILES): Nc1nc(CCc2n[nH]c(N)n2)n[nH]1
- GI50 [8]: > 100 µM (inactive)
- GI50 [1]: > 100 µM (inactive)
- GI50 [3]: > 100 µM (inactive)
- GI50 [9]: > 100 µM (inactive)
- GI50 [4]: > 100 µM (inactive)
- GI50 [5]: > 100 µM (inactive)
- GI50 [6]: > 100 µM (inactive)

Structure (SMILES): Cc1ccccc1C1=[N+]([O-])c2ccc(Cl)cc2C1=O
- GI50 [8]: 7.41 µM (inactive)
- GI50 [2]: 14.1 µM (inactive)
- GI50 [3]: 4.51 µM (inactive)
- GI50 [9]: 12 µM (inactive)
- GI50 [4]: 8.05 µM (inactive)
- GI50 [5]: 3.72 µM (inactive)
- GI50 [7]: 4.39 µM (inactive)

Structure (SMILES): C/C(=N\NC(=O)CC(=O)Nc1ccc(Cl)cc1)c1cc2ccccc2oc1=O
- GI50 [8]: > 100 µM (inactive)
- GI50 [1]: > 100 µM (inactive)
- GI50 [2]: > 100 µM (inactive)
- GI50 [3]: > 100 µM (inactive)
- GI50 [4]: > 100 µM (inactive)
- GI50 [7]: > 100 µM (inactive)

Structure (SMILES): CN(C)CC1(C)CC/C(=C\c2ccccc2)C1=O (stereo not given)
- GI50 [8]: > 100 µM (inactive)
- GI50 [1]: > 100 µM (inactive)
- GI50 [2]: > 100 µM (inactive)
- GI50 [3]: > 100 µM (inactive)
- GI50 [4]: > 100 µM (inactive)
- GI50 [5]: 49 µM (inactive)
- GI50 [6]: > 100 µM (inactive)
- GI50 [7]: > 100 µM (inactive)

Structure (SMILES): O=C1CCCC[C@H]1[C@H]1CCC[C@@H]([C@H]2CCCCC2=O)C1=O
- GI50 [8]: > 100 µM (inactive)
- GI50 [2]: > 100 µM (inactive)
- GI50 [3]: > 100 µM (inactive)
- GI50 [9]: > 100 µM (inactive)
- GI50 [4]: > 100 µM (inactive)
- GI50 [5]: > 100 µM (inactive)
- GI50 [6]: 3.44 µM (inactive)
- GI50 [7]: > 100 µM (inactive)

Structure (SMILES): CC1=C(C(=O)CC(=O)C(=O)Nc2cccc(Cl)c2C)Sc2ccccc2N1
- GI50 [8]: > 100 µM (inactive)
- GI50 [1]: > 100 µM (inactive)
- GI50 [2]: > 100 µM (inactive)
- GI50 [9]: > 100 µM (inactive)
- GI50 [4]: > 100 µM (inactive)
- GI50 [5]: > 100 µM (inactive)
- GI50 [6]: > 100 µM (inactive)
- GI50 [7]: > 100 µM (inactive)

Structure (SMILES): CCN(CC)c1ccc(C(=C2C=CC(=[N+](CC)CC)C=C2)c2ccc(N(CC)CC)cc2)cc1
- GI50 [8]: 0.063 µM (active)
- GI50 [1]: 0.0507 µM (active)
- GI50 [3]: 0.184 µM (active)
- GI50 [4]: 0.0948 µM (active)
- GI50 [5]: 0.194 µM (active)
- GI50 [6]: 0.398 µM (active)
- GI50 [7]: 0.0296 µM (active)

Structure (SMILES): Cc1ccc(S(=O)(=O)CNC(=S)CCCC(=S)NCS(=O)(=O)c2ccc(C)cc2)cc1
- GI50 [8]: > 100 µM (inactive)
- GI50 [3]: > 100 µM (inactive)
- GI50 [9]: 44.9 µM (inactive)
- GI50 [4]: > 100 µM (inactive)
- GI50 [5]: 41 µM (inactive)
- GI50 [6]: 78.9 µM (inactive)
- GI50 [7]: > 100 µM (inactive)

Structure (SMILES): CCCN(CCCCC(NC(C)=O)C(=O)NCc1ccccc1)C(=O)N(C)N=O (stereo not given)
- GI50 [8]: > 100 µM (inactive)
- GI50 [1]: > 100 µM (inactive)
- GI50 [3]: > 100 µM (inactive)
- GI50 [9]: > 100 µM (inactive)
- GI50 [4]: > 100 µM (inactive)
- GI50 [6]: > 100 µM (inactive)
- GI50 [7]: > 100 µM (inactive)

Structure (SMILES): Cc1c2cc[n+](C)cc2c(C)c2c1[nH]c1ccc(OC(C)(C)C)cc12
- GI50 [8]: > 100 µM (inactive)
- GI50 [1]: > 100 µM (inactive)
- GI50 [2]: > 100 µM (inactive)
- GI50 [9]: > 100 µM (inactive)
- GI50 [4]: > 100 µM (inactive)
- GI50 [6]: > 100 µM (inactive)
